Results reported in US20250235543A1, “MODIFIED PROTEINS AND PROTEIN DEGRADERS” (Cullgen (Shanghai), Inc., priority 2021, published 2025).

Assays:
Format in all cases: cell-based
[1] = target: T1, BRD4 (Homo sapiens, UniProt O60885); assay: Immunoblot of BRD4 protein levels in Daudi, SU-DHL-4 or MDA-MB-231 cells; conditions: SU-DHL-4 or MDA-MB-231 cell lines, 8 hours, dose range
T1 construct: endogenous in cells; host or cells: Daudi, SU-DHL-4, MDA-MB-231
Source text: Additional exemplary heterobifunctional compounds were designed to modulate the protein levels of either P300/CBP, or BRD4, and characterized in multiple cell lines. […] Taken together, DDB1 ligands conjugating with different target ligands may modulate the cellular target protein levels of cyclin D, CDK4/6, P300/CBP and BRD4.

[2] = target: T1, BRD4; assay: Immunoblotting of BRD4 protein levels in multiple cell lines; conditions: Daudi, SU-DHL-4, or MDA-MB-231 cells, 8 hours
Experimental: Daudi, SU-DHL-4, or MDA-MB-231 cells were treated with CPD-253 at indicated concentrations for 8 hours.
Cultured cells were washed with cold PBS once and lysed in cold RIPA buffer supplemented with protease inhibitors and phosphatase inhibitors (Beyotime Biotechnology). The solutions were then incubated at 4° C. for 30 min with gentle agitation to fully lysed cells. Cell lysates were centrifuged at 13,000 rpm for 10 min at 4° C. and pellets were discarded. Total protein concentrations in the lysates were determined following BCA assays (Beyotime Biotechnology). Cell lysates were mixed with Laemmli loading buffer and heated at 99° C. for 5 min. Proteins were resolved on SDS-PAGE and visualized using Western ECL Substrate kits on a ChemiDoc MP Imaging system (Bio-Rad). Protein bands were quantitated using the Image Lab software provided by Bio-Rad.

[3] = system: T47D cells; assay: Flow cytometric analysis of Annexin V/7-AAD stained T47D cells; conditions: 6 days
Experimental: ER^+ breast cancer T47D cells were treated with DMSO, palbociclib, heterobifunctional compound CPD-343, or negative control compound CPD-380 for 6 days at doses approximating IC50 and IC90 concentrations determined in FIGS. 10A and 13. Cells were harvested by trypsinization, staining was carried out using the Annexin V Apoptosis Detection Kit. The percentages of early apoptotic (Annexin V^+7-AAD^−, lower right quadrant), late apoptotic (Annexin V^+7-AAD^+, upper right quadrant) and necrotic cells (Annexin V-7-AAD^+, upper left quadrant) are indicated on dot plots. […] Furthermore, we developed one ER^+ breast cancer T47D model with acquired resistance after long period of treatment with 1 μM palbociclib (over IC90). Cells were deemed resistant when growing in the presence of palbo at the same rate as parental cells. Palbo resistance was determined by CellTiter-Lumi cell viability assay.

[4] = system: T47D palbo-resistant model; assay: CellTiter-Lumi cell viability in T47D palbociclib-resistant model; conditions: 6 days; resistance acquired under 1 μM palbociclib
Experimental: Furthermore, we developed one ER^+ breast cancer T47D model with acquired resistance after long period of treatment with 1 μM palbociclib (over IC90). […] Palbo resistance was determined by CellTiter-Lumi cell viability assay.

[5] = system: cyclin D1; assay: Cyclin D1 percentage degradation in Calu-1 cells (immunoblotting); conditions: 200 nM, 16 hours
How it was run: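 Cyclin D1 degradation was assessed by western blot. Clarified lysates, obtained by RIPA lysis with inhibitors and centrifugation at 13,000 rpm, were normalized by BCA protein assay and separated by SDS-PAGE. Bands were detected with Western ECL Substrate on a Bio-Rad ChemiDoc MP Imaging system and quantified in Image Lab software to derive percentage degradation.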

[6] = target: T2, CDK4 (Homo sapiens, UniProt P11802); assay: CDK4 percentage degradation in Calu-1 cells (immunoblotting); conditions: Calu-1 cells, 200 nM, 16 hours; read-out: CDK4 Degradation (200 nM)
T2 construct: endogenous in cells; host or cells: Calu-1
T2 sequence (P11802 2-303 limits assumed): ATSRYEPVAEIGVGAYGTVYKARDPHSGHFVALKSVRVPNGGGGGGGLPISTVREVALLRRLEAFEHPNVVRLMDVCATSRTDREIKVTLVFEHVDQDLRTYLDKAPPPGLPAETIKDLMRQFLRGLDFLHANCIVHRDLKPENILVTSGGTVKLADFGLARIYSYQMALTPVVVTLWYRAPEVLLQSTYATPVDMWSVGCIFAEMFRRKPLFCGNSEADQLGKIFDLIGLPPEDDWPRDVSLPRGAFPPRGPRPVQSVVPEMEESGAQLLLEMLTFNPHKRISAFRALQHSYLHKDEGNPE
T2 sequence (P24385 whole entry partner): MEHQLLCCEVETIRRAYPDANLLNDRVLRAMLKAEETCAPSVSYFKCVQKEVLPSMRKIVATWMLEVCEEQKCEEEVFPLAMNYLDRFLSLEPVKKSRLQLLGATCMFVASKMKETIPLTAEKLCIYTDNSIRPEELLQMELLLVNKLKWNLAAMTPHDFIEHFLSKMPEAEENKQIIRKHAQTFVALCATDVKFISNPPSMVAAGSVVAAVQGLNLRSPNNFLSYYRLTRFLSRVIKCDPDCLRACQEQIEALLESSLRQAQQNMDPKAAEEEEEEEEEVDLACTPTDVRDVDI
T2 sequence (Q16531 2-1140 limits assumed, further chain): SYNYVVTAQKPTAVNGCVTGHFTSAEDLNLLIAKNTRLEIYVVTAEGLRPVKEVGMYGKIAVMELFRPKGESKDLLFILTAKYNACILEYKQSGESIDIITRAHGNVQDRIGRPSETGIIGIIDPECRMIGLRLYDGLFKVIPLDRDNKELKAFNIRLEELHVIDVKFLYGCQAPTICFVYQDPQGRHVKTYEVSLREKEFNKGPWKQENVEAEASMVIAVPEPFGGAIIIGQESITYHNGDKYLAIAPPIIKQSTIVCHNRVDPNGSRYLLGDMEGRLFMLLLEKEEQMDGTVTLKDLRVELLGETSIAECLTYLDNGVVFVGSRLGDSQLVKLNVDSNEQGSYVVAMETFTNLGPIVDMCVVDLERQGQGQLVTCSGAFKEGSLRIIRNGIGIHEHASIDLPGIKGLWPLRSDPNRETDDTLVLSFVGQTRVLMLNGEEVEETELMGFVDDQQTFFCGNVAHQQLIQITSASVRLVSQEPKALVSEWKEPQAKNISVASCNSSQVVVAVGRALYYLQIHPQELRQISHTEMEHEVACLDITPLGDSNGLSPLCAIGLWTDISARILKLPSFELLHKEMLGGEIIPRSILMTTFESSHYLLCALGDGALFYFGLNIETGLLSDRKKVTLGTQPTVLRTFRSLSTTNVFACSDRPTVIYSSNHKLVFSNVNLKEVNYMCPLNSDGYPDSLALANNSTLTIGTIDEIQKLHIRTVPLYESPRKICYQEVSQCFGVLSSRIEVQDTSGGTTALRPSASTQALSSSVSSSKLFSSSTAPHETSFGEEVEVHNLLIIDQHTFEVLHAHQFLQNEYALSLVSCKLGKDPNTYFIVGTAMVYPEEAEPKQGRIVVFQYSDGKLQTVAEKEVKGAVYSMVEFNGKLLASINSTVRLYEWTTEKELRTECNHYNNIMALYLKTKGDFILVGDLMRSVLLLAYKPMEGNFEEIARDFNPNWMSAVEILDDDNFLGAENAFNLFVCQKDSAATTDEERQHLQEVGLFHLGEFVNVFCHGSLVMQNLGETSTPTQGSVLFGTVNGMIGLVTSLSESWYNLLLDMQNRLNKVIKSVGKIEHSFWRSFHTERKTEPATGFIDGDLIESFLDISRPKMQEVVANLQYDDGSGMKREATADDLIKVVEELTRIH
How it was run: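 CDK4 degradation was measured by immunoblotting. Cells were washed in cold PBS and lysed in RIPA buffer with inhibitors for 30 min at 4° C., then spun at 13,000 rpm to clear. After BCA protein determination, lysates were heated at 99° C. for 5 min in Laemmli buffer, resolved on SDS-PAGE, imaged on a ChemiDoc MP with ECL substrate, and band intensities quantified.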

[7] = system: T47D cells; assay: Annexin V apoptosis flow cytometry in T47D cells; conditions: 6 days
Experimental: T47D cells were treated with DMSO, palbociclib, heterobifunctional compound CPD-343, or negative control compound CPD-380 for 6 days at doses approximating IC50 and IC90 concentrations as indicated. Cells were harvested by trypsinization, staining was carried out using the Annexin V Apoptosis Detection Kit.
Assays were performed on the CytoFLEX Cytometer (Beckman Coulter), and data were analyzed using CytExpert software. For cell death and apoptosis analysis, cells were harvested by trypsinization, staining was carried out using the Annexin V Apoptosis Detection Kit (BD Biosciences). Briefly, cells were resuspended in 1× binding buffer and incubated with fluorochrome-conjugated Annexin V and 7-AAD for 15 min in darkness at room temperature.

[8] = system: T47D palbo-resistant cells; assay: Cell viability in T47D palbo-resistant model; conditions: 10-point serial dilution, 6 days
Experimental: T47D cells were cultured long-term to resistance in the presence of 1 μM Palbocicilib. Palbo resistance was determined by CellTiter-Lumi cell viability assay. T47D parental or palbo-resistant cells were treated with palbociclib, or heterobifunctional compound CPD-343 following a 10-point serial dilution for 6 days.
Calu-1, T47D, MCF7, NCI-H522, BT-549, MDA-MB-157, MDA-MB-453, MDA-MB-468, Hs578T, KURAMOCHI, OVCAR3, MIA PaCa-2, Cal-62, LNCaP, NCI-H1703, MM.1R, Daudi, SU-DHL-4, MDA-MB-231 and other cells were cultured at 37° C. with 5% CO2 in RPMI 1640 or DMEM medium supplemented with 10% fetal bovine serum. Cells were authenticated using the short tandem repeat (STR) assays. Mycoplasma test results were negative. Cell transfection was performed using PEI or Lipofectamine 2000 (Invitrogen) following the manufacturer's instructions. […]
Cells were seeded at a density of 2,000-5,000 cells per well in 96-well assay plates and treated with test compounds following a 10-point serial dilution for 3-6 days. Cell viability was determined using the CellTiter-Lumi assay kit according to the manufacturer's instructions. The dose-response curves were determined and IC50 values were calculated using the GraphPad Prism software following a nonlinear regression (least squares fit) method. […]

Row | reduction of BRD4 protein levels [1] | inhibition at 0.2 µM [6] | SMILES | BRD4 protein levels [2] | Annexin V+ population ([3]; 10 nM) | Annexin V+ population ([3]; 200 nM) | activity in T47D palbo-resistant model compared to parental cells [4] | CyclinD1 Degradation (200 nM) [5] | Annexin V+ population ([7]; 10 nM) | Annexin V+ population ([7]; 200 nM) | cell viability in T47D palbo-resistant model [8]
1 | dramatically reduce | – | Cc1nc(NC(=O)c2ccccc2NC(=O)CCCCCCCCCCCNCCNC(=O)C[C@@H]2N=C(c3ccc(Cl)cc3)c3c(sc(C)c3C)-n3c(C)nnc32)sc1C [CPD-253, (S)-2-(12-((2-(2-(4-(4-Chlorophenyl)-2,3,9-trimethyl-6H-thieno[3,2-f][1,2,4]triazolo[4,3-a][1,4]diazepin-6-yl)acetamido)ethyl)amino)dodecanamido)-N-(4,5-dimethylthiazol-2-yl)benzamide] | reduced BRD4 protein levels in a concentration-dependent manner | – | – | – | – | – | – | –
2 | – | > 80% | CNc1ccc(C(=O)Nc2ccc(OC)nn2)c(NC(=O)CCOCCOCCNC(=O)CN2CCN(c3ccc(Nc4ncc5c(C)c(C(C)=O)c(=O)n(C6CCCC6)c5n4)nc3)CC2)c1 [CPD-343, 2-(3-(2-(2-(2-(4-(6-((6-Acetyl-8-cyclopentyl-5-methyl-7-oxo-7,8-dihydropyrido[2,3-d]pyrimidin-2-yl)amino)pyridin-3-yl)piperazin-1-yl)acetamido)ethoxy)ethoxy)propanamido)-N-(6-methoxypyridazin-3-yl)-4-(methylamino)benzamide] | – | 26.9% | 52.6% | remain effective | A (protein percentage degradation >=80%) | 26.9% | 52.6% | remained effective in T47D palbo-resistant model
